In patent US20060189539A1, “Novel GnRH analogues with antitumour effects and pharmaceutical compositions thereof” (priority 1994, published 2006):

How the values were obtained:
[1] = tested on: MCF-7 human mammary carcinoma cell line; assay: Inhibition of colony formation (dose-survival), Example 48; format: cell-based; details: 50 μM
MCF-7 cells = assay: Inhibition of cell division (cell count), Example 49; format: cell-based, human; details: MCF-7 (2x); 30 μM
Procedure: After being treated with trypsin, 300,000 each of MCF-7, MDA-MB-231, PC3 or Ishikawa cells, respectively, were passed into Petri dishes of 10 cm in diameter. Starting from the day following the setting, the cells were treated with 1-50 μM of the GnRH analogue in the exponential growth phase. During the experiment lasting for 5 days, the cells were treated in every two days with the peptide hormone dissolved in the nutrient medium, then the cell count was determined on the sixth day.

Ac-D-Trp1,3,D-Cpa2,{Lys[n-poly(N-vinyl pyrrolidone-co-maleic acid)-]}5,[a-Asp(DEA)]6,D-Ala10-GnRH [Compound P-1892]
% Inhibition of colony formation [1]: 26% | % Inhibition of cell proliferation (MCF-7 cells): 0%
